Test results: patent publication US11819492B2, “Natural product derivatives for inhibiting cellular necroptosis, ferroptosis and oxytosis” (Institut National de la Sante et de la Recherche Medicale …, priority 2016, dated 2023)

Assays:
[1] = system: Jurkat FADD-deficient I 2.1 cell line; assay: TNF-α-induced necroptosis in Jurkat FADD-deficient cells, MTS viability assay; assay type: cell-based, human; conditions: TNF-α 10 ng/ml, 24 hours
From the text: TNF-α can induce necroptosis in Jurkat cells (human T lymphocytes) when FADD is deleted. This model was used to screen various libraries of chemical compounds for characterization of new inhibitors of cellular necroptosis. Details on this cell-based assay can be found in Miao and Degterev (Methods Mol. Biol. 2009, 559, 79-93). The Jurkat FADD-deficient I 2.1 cell line used was purchased from ATCC and was maintained in RPMI 1640 medium (Gibco) containing Glutamax and 15% fetal calf serum (Life Technology). Necroptosis was induced by addition of 10 ng/ml of human recombinant TNF-α (Life Technology). Necrostatin-1 (Nec-1, Enzo Life Sciences) was used as model necroptosis inhibitor. Cells were maintained in 75 cm^2 flask and passed every 2 or 3 days. Chemical collections analysed were formatted in 96-well plates with 80 molecules per plate at 10 mM in 100% DMSO. […]
Cells were incubated at 37° C., 5% CO2 for 24 hours before performing MTS viability assay. Cell viability was monitored using CellTiter 96® AQueous Non-Radioactive Cell Proliferation Assay (Promega, Fitchburg, WI, USA), based on the water-soluble tetrazolium compound MTS (3-[4,5-dimethylthiazol-2-yl]-5-[3-carboxymethoxy-phenyl]-2-[4-sulfophenyl]-2H-tetrazolium, inner salt) according to the manufacturers instructions.

[2] = system: rat embryonic myoblastic H9C2 cells; assay: H2O2-induced necrosis, LDH release assay; assay type: cell-based; conditions: 10 μM, 2 hours pretreatment, 800 μM H2O2 for 24 hours, FIG. 17
Method: The rat embryonic myoblastic H9C2 cells were cultured at 10,000 cells/well in 96-well-plates for 24 hours at 37° C./5% CO2. […] LB corresponds to cells treated with a lysis buffer (100% of cell death). Cell cytotoxicity was determined by a colorimetric assay quantitatively measuring lactate dehydrogenase (LDH) released […].

[3] = target: T1, Human RIPK1 full length GST-tagged (Homo sapiens, UniProt Q13546); assay: RIPK1 autophosphorylation assay; assay type: biochemical
T1 construct: Human RIPK1 full length GST-tagged; made in house; host or cells: Sf9 insect cells (baculovirus, Bac-to-Bac)
T1 sequence (Q13546 1-671): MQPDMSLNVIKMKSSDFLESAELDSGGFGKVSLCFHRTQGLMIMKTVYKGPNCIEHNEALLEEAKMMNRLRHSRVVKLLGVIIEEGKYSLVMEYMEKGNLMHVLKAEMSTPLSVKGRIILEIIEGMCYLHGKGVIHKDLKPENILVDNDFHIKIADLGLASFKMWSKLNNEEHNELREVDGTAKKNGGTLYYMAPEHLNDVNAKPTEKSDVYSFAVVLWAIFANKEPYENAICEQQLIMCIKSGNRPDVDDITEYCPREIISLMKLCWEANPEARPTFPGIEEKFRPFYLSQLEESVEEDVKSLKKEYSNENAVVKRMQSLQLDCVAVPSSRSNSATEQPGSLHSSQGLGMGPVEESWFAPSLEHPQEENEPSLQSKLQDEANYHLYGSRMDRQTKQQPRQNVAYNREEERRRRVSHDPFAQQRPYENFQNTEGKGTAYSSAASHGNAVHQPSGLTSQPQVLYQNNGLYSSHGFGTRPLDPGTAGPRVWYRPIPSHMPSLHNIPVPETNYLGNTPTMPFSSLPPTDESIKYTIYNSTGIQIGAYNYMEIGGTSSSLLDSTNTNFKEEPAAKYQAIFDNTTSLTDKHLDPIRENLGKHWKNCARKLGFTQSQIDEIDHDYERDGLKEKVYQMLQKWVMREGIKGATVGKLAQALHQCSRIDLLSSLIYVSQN
Method: RIPK1 Autophosphorylation Assay: • Human RIPK1 full length GST-tagged was baculovirally expressed in Sf9 cells according to manufacturer's instructions (Bac-to-Bac expression system, Invitrogen) and purified using gluthation-sepharose beads (GE Healthcare). The elution was made in 50 mM Tris-HCl, pH 8.0 buffer supplemented with 30 mM reduced gluthathione (Sigma). The protocol used to detect the enzymatic activity is adapted from Miao and Degterev (Methods Mol. Biol. 2009, 559, 79-93). Kinase reaction was initiated mixing 5 μl of eluted RIPK1, 5 μl of 3X kinase reaction buffer (5 mM MOPS pH 7.2, 2.5 mM β-glycerophosphate, 4 mM MgCl2, 2.5 mM MnCl2, 1 mM EGTA, 0.4 mM EDTA, 50 μg/ml BSA, 0.05 mM DTT), 2 μl H2O and 3 μl of the tested molecule. The mixture was kept on ice for 10 minutes. […] ATP. The ATP solution and the tested inhibitor were added to the kinase and incubated for 30 minutes at 30° C. To stop the enzymatic reaction, 5 μl of loading buffer were added and solution was heated for 3 minutes at 95° C. 25 μl of each reaction were loaded per well in pre-cast NuPage 12% Bis-Tris gel (Life Technology). Necrostatin-1, a well-described inhibitor of RIPK1, was used as an internal control. Coomassie staining was performed in order to estimate the total amount of protein loaded on polyacrylamide gel. […]

## COc1cc(O)c2c(c1)OC(O)(c1ccc(OCc3ccccc3)cc1)CC2=O (centres unmarked) [compound 1]
[1]; 0.01-50.00 μM, FIG. 1
  protection of cell viability from death induced by TNF-α: protects cells from death induced by TNF-α
[1]; screening at 10 μM
  necroptosis inhibition in the library screening: very efficient necroptosis inhibitor
[2]
  protection from death induced by H2O2 (LDH release): protects from death induced by H2O2
[3]; [γ-32P] ATP, 30 minutes at 30° C., FIG. 6
  inhibition of RIPK1 autophosphorylation: inhibits the RIPK1 autophosphorylation in a dose-dependent way
[3]; high ATP concentrations (e.g. 1 mM), FIG. 7
  effect of high ATP concentrations on inhibition of RIPK1 auto-phosphorylation: not affected
